# Measured values reported in patent US10711314B2, “Methods for diagnosing IDH-mutant cell proliferation disorders” (Agios Pharmaceuticals, Inc., priority 2009, dated 2020).
# pIC50, pKi: −log10 of the molar value. Values joined by “and” are separate entries in the source; they are usually repeats but may differ in a detail not shown here. Equal values may be shown once. Read-outs that look alike come from different tables or passages of the source.
# Legend:
# [1] = target: LDHb (Homo sapiens, UniProt P07195); assay: LDHb IC50 (Table 24a); format: biochemical
# [2] = target: LDHa (Homo sapiens, UniProt P00338); assay: LDHa IC50 (Table 24a); format: biochemical
# [3] = target: T1, IDH1 R132H (Homo sapiens, UniProt O75874, R132H); assay: High throughput screening for IDH1 R132H inhibitors (NADPH/αKG, resazurin detection); format: biochemical; settings: for IC50 Ratio (40/4): ratio of ICDH IC50 at 40 uM vs 4 uM NADPH
# T1 construct: The resultant fragments for IDH1 (full length) and IDH2 (residues 40-452) were cloned into vector pET41a; made in house; host or cells: E. coli
# Procedure: Assays were conducted in a volume of 76 ul assay buffer (150 mM NaCl, 10 mM MgCl2, 20 mM Tris pH 7.5, 0.03% bovine serum albumin) as follows in a standard 384-well plate: To 25 ul of substrate mix (8 uM NADPH, 2 mM αKG), 1 ul of test compound was added in DMSO. […] The reaction was incubated for 50 minutes at room temperature, then 25 ul of detection mix (30 uM resazurin, […]) was added and the mixture further incubated for 5 minutes at room temperature. The conversion of resazurin to resorufin was detected by fluorescent spectroscopy at Ex544 Em590 c/o 590.
# (§1) The selectivity between wild type vs mutant could be >20-fold.
# [4] = target: T2, IDH1 wild-type (Homo sapiens, UniProt O75874); assay: Inhibition of oxidative decarboxylation of isocitrate to α-KG by IDH1 wild-type; format: biochemical; settings: for effect on the oxidative decarboxylation of isocitrate by wild-type ICDH1: added in a titration series
# T2 construct: The resultant fragments for IDH1 (full length) and IDH2 (residues 40-452) were cloned into vector pET41a; made in house; host or cells: E. coli Rosetta
# Procedure: (§2) In these reactions, the substrate was varied while the cofactor was held constant at 500 uM. All reactions were performed in 150 mM NaCl, 20 mM Tris-Cl, pH 7.5, 10% glycerol, and 0.03% (w/v) BSA). Reaction progress was followed by spectroscopy at 340 nM monitoring the change in oxidation state of the cofactor. Sufficient enzyme was added to give a linear change in absorbance for 10 minutes.
# (§3) A well-known regulatory mechanism for control of metabolic enzymes is feedback inhibition, in which the product of the reaction acts as a negative regulator for the generating enzyme.
# (§4) Final concentrations: Tris 7.5 20 mM, NaCl 150 mM, MnCl2 2 mM, Glycerol 10%, BSA 0.03%, NADP 0.5 mM, IDH1 wt 1.5 ug/ml, IDH1R132S 30 ug/ml, IDH1R132H 60 ug/ml, DL-isocitrate (5-650 uM).
# A reaction containing the wild-type ICDH1, NADP, and α-KG was assembled (under conditions as described above) to which was added in a titration series either (R)-2-hydroxyglutarate or the reaction product of the ICDH1 […] mutant reduction of α-KG to 2-hydroxyglutarate.
# [5] = target: T1, IDH1 R132H; assay: Inhibition of oxidative decarboxylation of isocitrate to α-KG by IDH1 R132H; format: biochemical
# Procedure: as §2, §3, §4
# [6] = target: T3, IDH1 R132S (Homo sapiens, UniProt O75874, R132S); assay: Inhibition of oxidative decarboxylation of isocitrate to α-KG by IDH1 R132S; format: biochemical
# T3 construct: The resultant fragments for IDH1 (full length) and IDH2 (residues 40-452) were cloned into vector pET41a; made in house; host or cells: E. coli Rosetta
# Procedure: as §2, §3, §4
# [7] = target: T4, IDH1 wt (Homo sapiens, UniProt O75874); assay: IDH1 wt assay (wild type vs mutant selectivity); format: biochemical
# T4 construct: The resultant fragments for IDH1 (full length) and IDH2 (residues 40-452) were cloned into vector pET41a; made in house; host or cells: E. coli
# Text: as §1
# [8] = system: glioblastoma multiforme; settings: glioblastoma multiforme patients; cited from earlier work
# [9] = IDH1/2 activity assay, reverse reaction (α-KG and NADPH); format: biochemical, human; settings: reductive (→NADP^+)
# Procedure: (§5) All reactions were performed in standard enzyme reaction buffer (150 mM NaCl, 20 mM Tris-Cl, pH 7.5, 10 mM MgCl2 and 0.03% (w/v) bovine serum albumin). For determination of kinetic parameters, sufficient enzyme was added to give a linear reaction for 1 to 5 seconds. Enzymatic binding constants were determined using curve fitting algorithms to standard kinetic models with the Sigmaplot software package (Systat Software, San Jose, Calif.). For determination of kcat, enzyme was incubated with 5×Km of substrate and cofactor; consumption of NADPH or NADP was determined by a change in the OD340 over time. In both cases an extinction coefficient of 6200 M^−1 cm^−1 was used for NADPH.
# [10] = IDH1/2 activity assay, forward reaction (isocitrate and NADP+); format: biochemical, human; settings: Oxidative (→NADPH), recombinant IDH1; for pKi: inhibition by aKG; for Km: read-out: KM,isocitrate
# Procedure: as §5
# [11] = Recombinant IDH1 enzyme assays (stopped-flow, 340 nm); format: biochemical, human; settings: NADP+-dependent oxidative decarboxylation of isocitrate, vs wild-type
# Procedure: 293T and the human glioblastoma cell lines U87MG and LN-18 were cultured in DMEM, 10% fetal bovine serum. Cells were transfected and selected using standard techniques. Protein expression levels were determined by Western blot analysis using IDHc antibody (Santa Cruz Biotechnology), IDH1 antibody (proteintech), MYC tag antibody (Cell Signaling Technology), and IDH2 antibody (Abcam). Metabolites were extracted from cultured cells and from tissue samples according to close variants of a previously reported method (Lu, W., Kimball, E. & Rabinowitz, J. D. J Am Soc Mass Spectrom 17, 37-50 (2006)), using 80% aqueous methanol (−80° C.) and either tissue scraping or homogenization to disrupt cells. […] For enzyme assays using recombinant IDH1 enzyme, proteins were produced in E. coli and purified using Ni affinity chromatography followed by Sephacryl S-200 size-exclusion chromatography. […] Chirality of 2HG was determined as described previously (Struys, E. A., Jansen, E. E., Verhoeven, N. M. & Jakobs, C. Clin Chem 50, 1391-5 (2004)). […] The IDH1 mutation status of each sample was determined using standard molecular biology techniques as described previously (Yan, H. et al. N Engl J Med 360, 765-73 (2009)). Metabolites were extracted and analyzed by LC-MS/MS as described above. […]
# [12] = Reduction of alpha-ketoglutarate with NADH by IDH1 wild-type and mutants; format: biochemical, human
# Procedure: In order to evaluate the ability of the mutant enzymes to utilize NADH in the reduction of alpha-ketoglutarate, the following experiment was conducted.
# [13] = Enzyme kinetics of IDH1 wild-type and mutants in oxidative decarboxylation of isocitrate to α-KG; format: biochemical, human
# Procedure: as §2
# All data was fit to the Hill equation by least-squares regression analysis.
# [14] = Enzyme kinetics of IDH1 wild-type and mutants in reduction of α-KG with NADPH; format: biochemical, human; settings: for consumption of NADPH in reduction of α-KG: 40 ug/ml of enzyme
# Procedure: as §2, with “reactions,” for “reactions, the”, “50” for “150”, “potassium phosphate buffer,” for “NaCl, 20 mM Tris-Cl,”, “6.5,” for “7.5,”, “glycerol,” for “glycerol, and”, “BSA, 5 mM MgCl2, and 40 mM sodium hydrocarbonate.” for “BSA).”
# [15] = NADH 0.5 mM, alpha-Ketoglutarate 5 mM
# T3 sequence (O75874 whole entry R132S, the tested form may be a part): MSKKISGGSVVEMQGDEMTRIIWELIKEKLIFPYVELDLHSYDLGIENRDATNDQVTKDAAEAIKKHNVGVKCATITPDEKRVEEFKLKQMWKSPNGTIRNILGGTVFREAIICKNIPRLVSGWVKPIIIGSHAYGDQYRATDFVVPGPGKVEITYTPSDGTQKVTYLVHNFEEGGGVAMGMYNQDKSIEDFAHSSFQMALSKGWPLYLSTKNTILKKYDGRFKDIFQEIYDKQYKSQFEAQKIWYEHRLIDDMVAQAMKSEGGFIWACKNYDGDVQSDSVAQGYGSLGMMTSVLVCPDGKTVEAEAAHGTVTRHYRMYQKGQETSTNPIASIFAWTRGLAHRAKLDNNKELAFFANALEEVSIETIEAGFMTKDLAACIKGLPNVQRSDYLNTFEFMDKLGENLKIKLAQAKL
# T2 sequence (O75874 whole entry, the tested form may be a part): as the sequence (O75874 whole entry R132S, the tested form may be a part) above, with S132R counted along it
# LDHb, sequence (P07195 whole entry, species assumed): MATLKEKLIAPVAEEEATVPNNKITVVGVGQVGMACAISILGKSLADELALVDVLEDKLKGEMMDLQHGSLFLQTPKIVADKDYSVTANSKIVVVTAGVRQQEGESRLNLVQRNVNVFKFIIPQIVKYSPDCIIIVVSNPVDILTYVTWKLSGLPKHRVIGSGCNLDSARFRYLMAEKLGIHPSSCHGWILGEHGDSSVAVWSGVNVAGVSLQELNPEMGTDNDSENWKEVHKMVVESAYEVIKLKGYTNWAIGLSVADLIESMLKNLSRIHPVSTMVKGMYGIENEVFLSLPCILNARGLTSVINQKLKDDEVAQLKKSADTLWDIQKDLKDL
# T1 sequence (O75874 whole entry R132H, the tested form may be a part): as the sequence (O75874 whole entry R132S, the tested form may be a part) above, with S132H counted along it
# T4 sequence (O75874 whole entry, the tested form may be a part): as the sequence (O75874 whole entry R132S, the tested form may be a part) above, with S132R counted along it
molecule,measurement,setting,value
Cc1c(/C=C2\Sc3ccccc3C2=O)c(O)n2c(nc3ccccc32)c1C#N,pIC50,[1],4.19
same,pIC50,[2],4.59
same,IC50 Ratio (40/4),[3],17.42
O=C1NC(=S)S/C1=C\c1cccc(OC(=O)c2cccc(F)c2)c1,pIC50,[1],< 4.00
same,pIC50,[2],5.06
same,IC50 Ratio (40/4),[3],1.15
Cc1cc(C(=O)O)ccc1-c1ccc(/C=C2/NC(=O)N(Cc3ccc(Br)cc3)C2=O)o1,pIC50,[1],< 4.00
same,pIC50,[2],4.47
same,IC50 Ratio (40/4),[3],1.28
O=C1NC(=S)S/C1=C/c1cccc(OCc2ccc([N+](=O)[O-])cc2)c1,pIC50,[1],< 4.00
same,pIC50,[2],4.89
same,IC50 Ratio (40/4),[3],1.39
O=C(O)CC[C@@H](O)C(=O)O [(R)-2-hydroxyglutarate],effect on the oxidative decarboxylation of isocitrate by wild-type ICDH1,[4],did not show any effect
"O=C(O)C(=O)C(C(=O)O)C(O)C(=O)O (stereo not shown) [Oxalomalate, oxalomalate]",pKi,"[4]; IDH1 wt 1.5 ug/ml, competitive with isocitrate, NADP 0.5 mM, read-out: Oxalomalate Ki",3.02
same,pKi,"[5]; IDH1R132H 60 ug/ml, competitive with isocitrate, NADP 0.5 mM, read-out: Oxalomalate Ki",3.02
same,susceptibility to inhibition by oxalomalate,[5]; R132H mutation compared with wt,essentially unaffected
same,pKi,"[6]; IDH1R132S 30 ug/ml, competitive with isocitrate, NADP 0.5 mM, read-out: Oxalomalate Ki",3.29
same,susceptibility to inhibition by oxalomalate,[6]; R132S mutation compared with wt,approximately a two-fold increase in susceptibility
Cc1ccc(C2=NN(c3ccccc3)C(c3cn(CCC(=O)O)nc3-c3ccccc3)C2)cc1 (stereo not shown) [drawing 31],pIC50,[1],4.76
same,pIC50,[2],5.23
same,IC50 Ratio (40/4),[3],3.38
same,IDH1wt IC50 @ 1x Km (uM),[7]; 1x Km of NADPH,NO inhibition
Cc1c(C=C2Sc3ccccc3C2=O)c(O)n2c(nc3ccccc32)c1C#N [first example],IC50 when assayed at 100×Km,[3]; IDH1R132H at 100× Km of NADPH,shifted significantly
same,pIC50,"[3]; IDH1R132H, presumably at 10× Km of NADPH",5.24
"O=C(O)CCC(O)C(=O)O (stereo not shown) [reaction product 2-HG, 2-hydroxyglutarate]",effect on the oxidative decarboxylation of isocitrate by wild-type ICDH1,[4],inhibit
Cc1ccc(C2=NN(c3ccccc3)C(c3cn(CCC(=O)O)nc3-c3ccccc3)C2)cc1 (stereo not shown) [second example],inhibition of IDH1 wt,"[7]; even at 100 uM, 1× Km of NADPH",no inhibition
Cn1nnc2c(C(N)=O)ncn2c1=O [temozolomide],tolerability,[8],well tolerated
"O=C(O)CCC(=O)C(=O)O [α-KG, α-ketoglutarate]",pKi,[4],3.21
same,pKi,[5],4.54
same,pKi,[6],4.34
R132C,kcat,[9]; WT value estimated (est.),550 s⁻¹
same,Km,[9]; n/a indicates no measureable activity,0.3 µM
same,pKi,[10],4.21
same,kcat,[10],710 s⁻¹
same,Km,[10],87000 µM
R132H: recombinant IDH1 Arg132His mutant with C-terminal His8 tag expressed in E. coli,decrease in catalytic turnover,[11],1000 fold
same,consumption of NADH in the presence of alpha-ketoglutarate,[12]; [15],no measurable consumption of NADH
R132S: recombinant IDH1 Arg132Ser mutant with C-terminal His8 tag expressed in E. coli,increase in Km,[13]; Km for isocitrate compared to wild-type,"20,000 fold"
same,Vmax,"[13]; isocitrate varied, cofactor 500 uM",95 µmol/min/mg
same,Hill Constant,"[13]; isocitrate, fit to Hill equation",0.479
same,consumption of NADPH in reduction of α-KG,[14],reduced α-KG and consumed NADPH
same,pKi,[14]; uncompetitive substrate inhibition by α-KG,1.61
same,Hill Constant,[14]; α-KG,0.479
same,Vmax,"[14]; α-KG varied, NADPH 500 uM, pH 6.5",2.7 µmol/min/mg
same,consumption of NADH in the presence of alpha-ketoglutarate,[12]; [15],demonstrated the ability to utilize NADH
same,Umol/min/mg,"[12]; consumption of NADH, individual determinations",0.7183 Umol/min/mg and 0.6997 Umol/min/mg
same,Rate (ΔA/sec),"[12]; consumption of NADH, individual determinations, NADH 0.5 mM, alpha-Ketoglutarate 5 mM",0.001117 ΔA/sec and 0.001088 ΔA/sec
same,Rate (ΔA/sec) Mean,"[12]; consumption of NADH, mean",0.001103 ΔA/sec
same,Umol/min/mg Mean,"[12]; consumption of NADH, mean",0.709 Umol/min/mg
Wt: recombinant wild type IDH1 with C-terminal His8 tag expressed in E. coli,kcat(s^−1),[9]; WT value estimated (est.),~7 (est.) s^−1
same,consumption of NADPH in reduction of α-KG,[14],unable to consume NADPH
same,consumption of NADH in the presence of alpha-ketoglutarate,[12]; [15],no measurable consumption of NADH
same,pKi,[10],3.21
same,kcat,[10],130000 s⁻¹
same,Km,[10],57 µM
